Tests used:
[1] = test system: NSLC xenograft model LXFE 397; experiment: Gemcitabine and compound 15 in human xenograft non small cell lung cancer model LXFE 397; type: in vivo, NMRI nude mice
Description: Female NMRI nude mice received unilateral tumor implants subcutaneously in the left flank while under isoflurane anesthesia with human LXFE 397 (squamous cell carcinoma, differentiation: poor) until tumors were palpable and had reached a volume of 50-150 mm^3. Animals were kept in cages, the temperature inside the cages maintained at 25±1° C. with a relative humidity of 45-65% and an air change rate in the cage of 60-fold per hour. The animals were fed with autoclaved Teklad Global 19% Protein Extruded Diet (T.2019S.12) from Harlan Laboratories and had access to sterile filtered and acidified (pH 2.5) tap water which was changed twice weekly. Feed and water are provided ad libitum. […] Animals are routinely monitored twice daily on working days and daily on Saturdays and Sundays. Starting on day 0, animals are weighed twice a week. Relative body weights (RBW) of individual animals are calculated by dividing the individual absolute body weight on day X (BWx) by the individual body weight on the day of randomization. The tumor volume is determined by a two-dimensional measurement with calipers on the day of randomization (Day 0) and then twice weekly. Tumor volumes are calculated according to the following equation: Tumor Vol [mm^3]=a [mm]×b^2 [mm^2]×0.5, where “a” is the largest diameter and “b” is the perpendicular diameter of the tumor representing an idealized ellipsoid. The relative volume of an individual tumor on day X (RTVx) is calculated by dividing the absolute volume [mm^3] of the respective tumor on day X (Tx) by the absolute volume of the same tumor on the day of randomization. Schedules are applied to the extent that animal welfare policies allow. Termination of individual mice at tumor volume >2000 mm^3. Stock solutions of compound 15 were prepared as follows for the two treatment groups: • 1) 8 mice, 40 g average weight: 24 mg/kg Gemcitabine equivalents≡78.48 mg/kg≡3.14 mg/mouse. Sample preparation: 154 mg weighed in a 20 mL vial dissolved in 14.7 mL 20 mM sodium phosphate buffer pH 7; 4 aliquots with 3.6 mL each in 10 mL vials. Frozen in liquid nitrogen, lyophilized (>48 h) and stoppered. • 2) 8 mice, 40 g average weight: 36 mg/kg Gemcitabine equivalents≡117.7 mg/kg≡4.71 mg/mouse. Sample preparation: 231 mg weighed in a 20 mL vial dissolved in 14.7 mL 20 mM sodium phosphate buffer pH 7; 4 aliquots with 3.6 mL each in 10 mL vials. Frozen in liquid nitrogen, lyophilized (>48 h) and stoppered.
On the day of treatment the lyophilized samples were dissolved in 20 mM sodium phosphate buffer pH 7, containing 5% Glucose and injected intravenously. […]

[2] = test system: human non-small cell carcinoma xenograft model LXFE 937; experiment: Gemcitabine and compound 15 in human non-small cell carcinoma xenograft model LXFE 937; type: in vivo, NMRI nude mice; settings: for Body weight change (BWC) versus control: compound 15 18 mg/kg gemcitabine equivalents i.v. days 0, 3, 7, 10, 14, 17, 21, 24
Description: Female NMRI nude mice received unilateral tumor implants subcutaneously in the left flank while under isoflurane anesthesia with human LXFE 937 tumor pieces until tumors were palpable and had reached a volume of ˜100 mm^3. Animals were kept in cages, the temperature inside the cages maintained at 25±1° C. with a relative humidity of 45-65% and an air change rate in the cage of 60-fold per hour. The animals were fed with autoclaved Teklad Global 19% Protein Extruded Diet (T.2019S.12) from Harlan Laboratories and had access to sterile filtered and acidified (pH 2.5) tap water which was changed twice weekly. Feed and water were provided ad libitum. […] Animals were routinely monitored twice daily on working days and daily on Saturdays and Sundays. Starting on day 0, animals were weighed twice a week. Relative body weights (RBW) of individual animals are calculated by dividing the individual absolute body weight on day X (BWx) by the individual body weight on the day of randomization. The tumor volume is determined by a two-dimensional measurement with calipers on the day of randomization (Day 0) and then twice weekly. Tumor volumes are calculated according to the following equation: • Tumor Vol [mm^3]=a [mm]×b^2 [mm^2]×0.5, where “a” is the largest diameter and “b” is the perpendicular diameter of the tumor representing an idealized ellipsoid. The relative volume of an individual tumor on day X (RTVx) is calculated by dividing the absolute volume [mm^3] of the respective tumor on day X (Tx) by the absolute volume of the same tumor on the day of randomization. Schedules are applied to the extent that animal welfare policies allow. Termination of individual mice at tumor volume >2000 mm^3. Stock solutions of compound 15 were prepared as follows for the two treatment groups: • 1) 8 mice, 40 g average weight: 2×18 mg/kg gemcitabine equivalents (bi-weekly dosing; d 0, 3, 7, 10 etc. for 4 weeks)≡58.4 mg/kg≡2.35 mg/mouse. Sample preparation: 115.5 mg weighed in a 10 mL vial dissolved in 7.35 mL 20 mM sodium phosphate buffer pH 7; 4 aliquots with 1.86 mL each in 10 mL vials. Frozen in liquid nitrogen, lyophilized (>48 h) and stoppered. On the day of treatment the lyophilized samples were dissolved in 20 mM sodium phosphate buffer pH 7, containing 5% Glucose and injected intravenously. Intravenous administration with vehicle (20 mM sodium phosphate buffer, 5% D-glucose—pH 7.0), gemcitabine (dissolved in 5% D-glucose; dose 240 mg/kg) and carried out on 1, 8, 15, and 22 and compound 15 (dissolved in 20 mM sodium phosphate buffer, 5% D-glucose—pH 7.0; 18 mg/kg gemcitabine equivalents) was carried on days 0, 3, 7, 10, 14, 17, 21, and 24.

[3] = test system: human ovarian carcinoma xenograft model OVXF 899; experiment: Gemcitabine and compound 15 in human ovarian carcinoma xenograft model OVXF 899; type: in vivo, NMRI nude mice; settings: for Body weight change (BWC) versus control: compound 15 18 mg/kg gemcitabine equivalents i.v. days 1, 4, 8, 11, 15, 18, 22, 25
Description: Animals were kept in cages, the temperature inside the cages maintained at 25±1° C. with a relative humidity of 45-65% and an air change rate in the cage of 60-fold per hour. […] Feed and water were provided ad libitum. […] Animals were routinely monitored twice daily on working days and daily on Saturdays and Sundays. Starting on day 0, animals were weighed twice a week. Relative body weights (RBW) of individual animals are calculated by dividing the individual absolute body weight on day X (BWx) by the individual body weight on the day of randomization. The tumor volume is determined by a two-dimensional measurement with calipers on the day of randomization (Day 0) and then twice weekly. […] Schedules are applied to the extent that animal welfare policies allow. […] Frozen in liquid nitrogen, lyophilized (>48 h) and stoppered.

[4] = test system: human pancreatic carcinoma xenograft model Panc11159; experiment: Gemcitabine and compound 15 in human pancreatic carcinoma xenograft model Panc11159; type: in vivo, NMRI nude mice; settings: for tumor volumes (change): at day 85, gemcitabine 240 mg/kg, compound 15 18 mg/kg gemcitabine equivalents; for Body weight change (BWC) versus control: gemcitabine 240 mg/kg i.v. d 36, 43, 50, 57, compound 15 18 mg/kg gemcitabine equivalents i.v. d 36, 40, 43, 47, 50, 54, 57, 60
Description: Female NMRI nude mice (nu/nu) received unilateral Panc11159 tumor pieces subcutaneously implanted until tumors were palpable and had reached a volume of ˜200 mm^3. Animals were kept in cages (Macrolon Type-II wire-mesh), the temperature inside the cages maintained at 22±1° C. with a relative humidity of 50±10%. Light period: artificial; 12-hours dark/12 hours light rhythm (light 06.00 to 18.00 hours). The health of the mice was examined at the start of the experiment and twice per day during the experiment; identification: Ear mark and cage labels. The animals were fed with Ssniff NM, Soest, Germany and had access to autoclaved and acidified (pH 4.0) drinking. Feed and water were provided ad libitum.
Body weight change was performed two or three times per week. Tumor diameters (median and medium) were measured two or three times a week with a caliper. Tumor volumes were calculated according to V=(length×(width)2)/2. For calculation of the relative tumor volume (RTV) the tumor volumes at each measurement day were related to the day of first treatment. Stock solutions of compound 15 were prepared as follows for the two treatment groups: • 10 mice, 30-40 g average weight: 2×18 mg/kg gemcitabine equivalents (bi-weekly dosing for 4 weeks)≡58.4 mg/kg≡2.35 mg/mouse. Sample preparation: 115.5 mg weighed in a 10 mL vial dissolved in 7.35 mL 20 mM sodium phosphate buffer pH 7; 4 aliquots with 1.86 mL each in 10 mL vials. Frozen in liquid nitrogen, lyophilized (>48 h) and stoppered.
On the day of treatment the lyophilized samples were dissolved in 20 mM sodium phosphate buffer pH 7, containing 5% Glucose and injected intravenously. Intravenous administration with vehicle (20 mM sodium phosphate buffer, 5% D-glucose—pH 7.0) gemcitabine (dissolved in 5% D-glucose; dose 240 mg/kg) and carried out on d 36, 43, 50, 57 compound 15 (dissolved in 20 mM sodium phosphate buffer, 5% D-glucose—pH 7.0; 18 mg/kg gemcitabine equivalents) was carried on days d 36, 40, 43, 47, 50, 54, 57, and 60.

cytidine deaminase = biological target: T1, cytidine deaminase (Homo sapiens, UniProt P32320); settings: recommended dose of ˜1000 mg/m^2; cited from earlier work
T1 construct: host or cells: endogenous enzyme in the dosed subject (in vivo metabolism)
T1 sequence (P32320 whole entry): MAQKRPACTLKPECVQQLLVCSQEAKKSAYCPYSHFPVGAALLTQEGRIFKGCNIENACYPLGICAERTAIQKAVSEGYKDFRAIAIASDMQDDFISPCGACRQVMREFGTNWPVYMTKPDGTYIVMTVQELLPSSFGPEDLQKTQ

[5] = approximately one seventh of the dose of gemcitabine, p<0.05
[6] = gemcitabine 240 mg/kg i.v. days 1, 8, 15, 22

C/C(=N\NC(=O)c1ccc(NC(=O)CCCCCN2C(=O)C=CC2=O)cc1[N+](=O)[O-])c1ccc(C(=O)Nc2ccn([C@@H]3O[C@H](COP(=O)(O)O)C(O)C3(F)F)c(=O)n2)cc1 (stereo partly drawn) [Compound 15]
antitumor efficacy versus gemcitabine (tumor growth development) ([1]; 24 mg/kg gemcitabine equivalents, one tenth of the dose of gemcitabine, p<0.05): superior antitumor efficacy | Body weight change (BWC) versus control ([1]; day 27, 24 mg/kg gemcitabine equivalents i.v. days 1, 8, 15, 22): ~0.5% | antitumor efficacy versus gemcitabine (tumor growth development) [2, 5]: superior antitumor efficacy | Body weight change (BWC) versus control [2, 6]: approximately +2% | tumor response ([2]; ˜60 days after the end of therapy, 18 mg/kg gemcitabine equivalents bi-weekly for 4 weeks): complete tumor remissions | tumor response ([3]; 50 days after the end of therapy, 18 mg/kg gemcitabine equivalents bi-weekly for 4 weeks): complete tumor remissions | antitumor efficacy versus gemcitabine (tumor growth development) [3, 5]: superior antitumor efficacy | Body weight change (BWC) versus control [3, 6]: approximately +10% | antitumor efficacy versus gemcitabine (tumor growth development) [4, 5]: superior antitumor efficacy | tumor volumes (change) [4]: slight regression or stable disease | Body weight change (BWC) versus control [4]: approximately +3%

Nc1ccn([C@@H]2O[C@H](CO)[C@@H](O)C2(F)F)c(=O)n1 [gemcitabine]
Body weight change (BWC) versus control ([1]; day 23, gemcitabine 240 mg/kg i.v. days 1, 8, 15, 22): approximately −6% | mice sacrificed due to tumor volume exceeding 2000 mm^3 ([1]; on day 23, 8 mice per group, gemcitabine 240 mg/kg): 2 mice | mice sacrificed due to tumor volume exceeding 2000 mm^3 ([2]; between day 78 to 85, 8 mice per group): 2 mice | start of tumor regrowth [2, 6]: ~20 days after therapy | Body weight change (BWC) versus control [2, 6]: approximately +10% | average tumor volume ([2]; ˜50 days after therapy, gemcitabine 240 mg/kg): ~700 mm^3 | average tumor volume ([3]; 50 days after therapy, gemcitabine 240 mg/kg): ~2000 mm^3 | start of tumor regrowth [3, 6]: ~10 days after therapy | Body weight change (BWC) versus control [3, 6]: approximately +5% | mice sacrificed due to tumor volume exceeding 2000 mm^3 ([3]; on day 74, 8 mice per group): 3 mice | tumor volumes (change) [4]: doubled | Body weight change (BWC) versus control [4]: approximately +3% | fraction deactivated by cytidine deaminase to the inactive uridine metabolite and excreted in the urine (cytidine deaminase): approximately 90%

— US12497417B2, “Delivery systems for controlled drug release” (LADRX CORPORATION, priority 2015, dated 2025)
